ChEMBL document CHEMBL1201862, “PubChem BioAssay data set” (2004)
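Growth conditions: 96-well plates. Treatment: test compound, 48 hours, 5 concentrations. Analysis: linear interpolation between bracketing concentrations; unreached endpoints set to highest concentration. The concentration for 50% growth inhibition is given as GI50.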 Calls of active or inactive are those of the source. Rule as the data show it: active = GI50 up to about 1.1 µM and inactive = higher.

Tests used:
Assay in all cases: growth of human tumour cells (NCI), 48 h
RXF 393 = system: RXF 393
HOP-62 = system: HOP-62
OVCAR-3 = system: OVCAR-3
SW-620 = system: SW-620
KM12 = system: KM12
HCT-15 = system: HCT-15
T47D = system: T47D
MCF7 = system: MCF7
U-251 = system: U-251
EKVX = system: EKVX
NCI-H226 = system: NCI-H226
HCT-116 = system: HCT-116
TK-10 = system: TK-10
HCC 2998 = system: HCC 2998
DU-145 = system: DU-145
CAKI-1 = system: CAKI-1
M14 = system: M14
K562 = system: K562
NCI-H460 = system: NCI-H460
SNB-19 = system: SNB-19
UO-31 = system: UO-31
OVCAR-5 = system: OVCAR-5
UACC-62 = system: UACC-62
NCI-H23 = system: NCI-H23
MDA-MB-231 = system: MDA-MB-231
MDA-MB-435 = system: MDA-MB-435
SK-OV-3 = system: SK-OV-3
OVCAR-8 = system: OVCAR-8
COLO 205 = system: COLO 205
SK-MEL-28 = system: SK-MEL-28
SF-268 = system: SF-268
OVCAR-4 = system: OVCAR-4
SK-MEL-5 = system: SK-MEL-5
Malme-3M = system: Malme-3M
UACC-257 = system: UACC-257
A549 = system: A549
SNB-75 = system: SNB-75
SN12C = system: SN12C
786-0 = system: 786-0
ACHN = system: ACHN
BT-549 = system: BT-549
SK-MEL-2 = system: SK-MEL-2
HT-29 = system: HT-29
NCI/ADR-RES = system: NCI/ADR-RES
HOP-92 = system: HOP-92
Hs-578T = system: Hs-578T
RPMI-8226 = system: RPMI-8226
SF-295 = system: SF-295
PC-3 = system: PC-3
LOX IMVI = system: LOX IMVI
NCI-H522 = system: NCI-H522
IGROV-1 = system: IGROV-1
HL-60 = system: HL-60
SR = system: SR
MOLT-4 = system: MOLT-4
MDA-N = system: MDA-N
CCRF-CEM = system: CCRF-CEM
SF-539 = system: SF-539

For `C=CC/N=C(\S)Nc1sc2c(c1C(=O)OCC)CC(C)CC2` (stereo unspecified), the GI50 (RXF 393) was 26.5 µM (inactive), the GI50 (HOP-62) was 23.1 µM (inactive) and the GI50 (OVCAR-3) was 20.3 µM (inactive). The GI50 (SW-620) was 32.8 µM (inactive), the GI50 (KM12) was 34.8 µM (inactive) and the GI50 (HCT-15) was 31.8 µM. For the same compound, the GI50 (T47D) was 21.4 µM (inactive), the GI50 (MCF7) was 20.2 µM (inactive) and the GI50 (U-251) was 32.6 µM (inactive). For the same compound, the GI50 (EKVX) was 28.1 µM (inactive), the GI50 (NCI-H226) was 21.6 µM (inactive) and the GI50 (HCT-116) was 24.8 µM (inactive). The GI50 (TK-10) was 26.3 µM (inactive), the GI50 (HCC 2998) was 18.5 µM (inactive) and the GI50 (DU-145) was 30.6 µM (inactive). For the same compound, the GI50 (CAKI-1) was 36.1 µM (inactive), the GI50 (M14) was 24 µM (inactive) and the GI50 (K562) was 33 µM (inactive). The GI50 (NCI-H460) was 20.8 µM (inactive), the GI50 (SNB-19) was 26.3 µM (inactive) and the GI50 (UO-31) was 23.7 µM (inactive). The GI50 (OVCAR-5) was 30.3 µM (inactive), the GI50 (UACC-62) was 20.6 µM (inactive) and the GI50 (NCI-H23) was 32.7 µM (inactive). For the same compound, the GI50 (MDA-MB-231) was 24.8 µM (inactive), the GI50 (MDA-MB-435) was 32 µM (inactive) and the GI50 (SK-OV-3) was 25.4 µM (inactive). The GI50 (OVCAR-8) was 36.7 µM (inactive), the GI50 (COLO 205) was 18.6 µM (inactive) and the GI50 (SK-MEL-28) was 33.1 µM (inactive). The GI50 (SF-268) was 35 µM (inactive), the GI50 (OVCAR-4) was 35.2 µM (inactive) and the GI50 (SK-MEL-5) was 16.3 µM (inactive). For the same compound, the GI50 (Malme-3M) was 21.3 µM (inactive), the GI50 (UACC-257) was 20.8 µM (inactive) and the GI50 (A549) was 24.8 µM (inactive). The GI50 (SNB-75) was 24.3 µM (inactive), the GI50 (SN12C) was 29.9 µM (inactive) and the GI50 (786-0) was 33.9 µM (inactive). For the same compound, the GI50 (ACHN) was 22.9 µM (inactive), the GI50 (BT-549) was 35.6 µM (inactive) and the GI50 (SK-MEL-2) was 21.2 µM (inactive). For the same compound, the GI50 (HT-29) was 21.5 µM (inactive), the GI50 (NCI/ADR-RES) was 31.1 µM (inactive) and the GI50 (HOP-92) was 33 µM (inactive). For the same compound, the GI50 (Hs-578T) was 36.6 µM (inactive), the GI50 (RPMI-8226) was 23.1 µM (inactive) and the GI50 (SF-295) was 21.1 µM (inactive). The GI50 (PC-3) was 21.1 µM (inactive), the GI50 (LOX IMVI) was 32.9 µM (inactive) and the GI50 (NCI-H522) was 20.6 µM (inactive). The GI50 (IGROV-1) was 33.3 µM (inactive), the GI50 (HL-60) was 0.849 µM (active) and the GI50 (SR) was 18.9 µM (inactive). The GI50 (MOLT-4) was 28.8 µM (inactive) and the GI50 (MDA-N) was 30.5 µM (inactive).

With `Cc1ccc(O)c(C2=NNC(c3cccc(Cl)c3)C2)c1` (stereo unspecified) the GI50 (RXF 393) was 19.4 µM (inactive), the GI50 (HOP-62) was 79.8 µM (inactive) and the GI50 (OVCAR-3) was 51.5 µM (inactive). For the same compound, the GI50 (SW-620) was 48 µM (inactive), the GI50 (KM12) was 20.6 µM (inactive) and the GI50 (HCT-15) was 8.09 µM. For the same compound, the GI50 (T47D) was 41.4 µM (inactive), the GI50 (MCF7) was 23.2 µM (inactive) and the GI50 (U-251) was 33.9 µM (inactive). The GI50 (EKVX) was 37 µM (inactive), the GI50 (NCI-H226) was 57.1 µM (inactive) and the GI50 (HCT-116) was 34 µM (inactive). For the same compound, the GI50 (TK-10) was 58.3 µM (inactive), the GI50 (DU-145) was 86.1 µM (inactive) and the GI50 (CAKI-1) was 36.8 µM (inactive). For the same compound, the GI50 (CCRF-CEM) was 31.8 µM (inactive), the GI50 (M14) was 87.5 µM (inactive) and the GI50 (K562) was 36.4 µM (inactive). For the same compound, the GI50 (NCI-H460) was 19.6 µM (inactive), the GI50 (SNB-19) was 14.4 µM (inactive) and the GI50 (UO-31) was 28.1 µM (inactive). For the same compound, the GI50 (OVCAR-5) was > 100 µM (inactive), the GI50 (UACC-62) was 39.7 µM (inactive) and the GI50 (NCI-H23) was 50.1 µM (inactive). For the same compound, the GI50 (MDA-MB-231) was 61.5 µM (inactive), the GI50 (SF-539) was 66.5 µM (inactive) and the GI50 (MDA-MB-435) was 19 µM (inactive). The GI50 (SK-OV-3) was 35.9 µM (inactive), the GI50 (OVCAR-8) was 56.2 µM (inactive) and the GI50 (COLO 205) was > 100 µM (inactive). For the same compound, the GI50 (SF-268) was 32.9 µM (inactive), the GI50 (OVCAR-4) was 24.4 µM (inactive) and the GI50 (SK-MEL-5) was 54 µM (inactive). For the same compound, the GI50 (Malme-3M) was 37.8 µM (inactive), the GI50 (UACC-257) was 35 µM (inactive) and the GI50 (A549) was 34.8 µM (inactive). For the same compound, the GI50 (SN12C) was 37.2 µM (inactive), the GI50 (786-0) was 72.8 µM (inactive) and the GI50 (ACHN) was 30.1 µM (inactive). For the same compound, the GI50 (BT-549) was > 100 µM (inactive), the GI50 (SK-MEL-2) was 30 µM (inactive) and the GI50 (HT-29) was 54.8 µM (inactive). The GI50 (NCI/ADR-RES) was 34.5 µM (inactive), the GI50 (HOP-92) was 18.5 µM (inactive) and the GI50 (Hs-578T) was 30.5 µM (inactive). The GI50 (RPMI-8226) was 25.1 µM (inactive), the GI50 (SF-295) was 66.4 µM (inactive) and the GI50 (PC-3) was 32.3 µM (inactive). The GI50 (LOX IMVI) was 31.6 µM (inactive), the GI50 (NCI-H522) was 16 µM (inactive) and the GI50 (IGROV-1) was 5.69 µM (inactive). For the same compound, the GI50 (HL-60) was 41.7 µM (inactive), the GI50 (SR) was 28.9 µM (inactive) and the GI50 (MOLT-4) was 34 µM (inactive). The GI50 (MDA-N) was 28.3 µM (inactive).
